Where no end group is shown, it is not given here.
What was measured:
epidermal melanocytes [1] = experiment: Melanin production of cultured epidermal melanocytes (optical density at 475 nm); type: cell-based, human; details: 6 days
Procedure: (§1) Three deleted media were used for the study, (i) growth factor-deleted medium, (ii) cAMP-elevating agent deleted medium and (iii) serum-depleted medium. Various testing substances were added to the three deleted media above. These substances include bFGF, HGF, epinephrine and α-MSH. The deleted medium without the test substance was the negative control and the complete medium is the positive control.
Melanocytes cultured as described above were detached by trypsin-EDTA solution and counted in a hemocytometer. The cell suspensions were centrifuged and the pellet was resuspended in 1N NaOH. Melanin concentration was determined by measurement of optical density at 475 nm by a spectrophotometer and compared with a standard curve obtained using synthetic melanin (Sigma, St. Louis, Mo.). Melanin content is expressed as μg/culture or ng/cell (Hu et al., 1995, Invest. Ophthalmol Vis Sci 36:931).

epidermal melanocytes [2] = experiment: Cell growth of cultured epidermal melanocytes by cell counting (6 days); type: cell-based, human
Procedure: as §1
Human skin specimens containing epidermis were obtained from a donor. The specimens were incubated in 0.25% trypsin solution (GIBCO, Carlsbad, Calif.) for 15 minutes at 37° C., followed by a 10 minute incubation with 0.2% EDTA (Sigma, St. Louis, Mo.) solution. The epidermal sheets were gently treated with forceps to dissociate the epidermal cells and to yield an epidermal cell suspension. The epidermal cells were centrifuged and seeded into a 25 cm^2 flask with the culture medium. The flask was incubated at 37° C. in an atmosphere of 95% humidified air and 5% CO2. Geneticin (Sigma, St. Louis, Mo.) was added (100 μg/ml) for three days to eliminate keratinocytes and fibroblasts. The medium was changed every three days. The melanocytes typically reached confluence in two weeks. After reaching confluence, the melanocytes were detached using trypsin-EDTA solution, centrifuged, diluted and seeded for subculture. At the time of transplantation, the melanocytes were detached using trypsin-EDTA solution, centrifuged and resuspended with F12 medium.
Cell counting was used to evaluate the effect of the test substance on growth of epidermal melanocytes. Epidermal melanocytes were plated in 6-well plates at a density of 1×10^5 cells per well with medium. After 24 hours, medium was replaced by the testing media. The media was changed every three days. After six days, the cells were detached with trypsin-EDTA solution and neutralized with culture medium with 10% serum. The cell suspension was centrifuged and the pellet was resuspended in 1 ml F12 medium, 20 μl of the cell suspension was collected into the tip of a Pasteur pipette and transferred to a hemocytometer. The hemocytometer was observed under an optical microscope. Cells falling in four […] areas bounded by three parallel lines were counted. The cell number was obtained using Formula I shown below (Freshney, 1987, Culture of Animal Cells. Wiley-Liss, Inc., New York, 2nd edition). The average of four counts was calculated. Triplicate samples were assayed in all experiments. c=n×10^4 FORMULA I • where c=concentration (cells/ml), n=number of cells counted.

epidermal melanocytes [3] = experiment: Migration of cultured epidermal melanocytes in Boyden chambers; type: cell-based, human; details: for Migration of epidermal melanocytes: cAMP deleted medium
Procedure: Cell migration experiments were performed on early passages of cells in 48-well Boyden chambers (Neuroprobe, Bethesda, Md.). Cultured epidermal melanocytes were dissociated with 0.05% trypsin-EDTA (Sigma, St. Louis, Mo.) at 37° C. for 2–3 minutes, neutralized by culture medium with 10% FBS. The cells were centrifuged and resuspended in culture medium. The lower half of the Boyden chambers contained culture medium with or without tested substances. An 8 μm pore cellulose nitrate filter separated the upper and lower wells. Epidermal melanocytes (3×10^4) suspended in 50 μl culture medium (with or without tested substances) were added to the upper wells. The chamber was incubated at 37° C. in a humidified atmosphere at 95% air and 5% CO2. After 6 hours, the filter was removed from the chamber, fixed in 95% ethanol for 5 minutes, and stained with hematoxylin for 1 minute. The number of cells migrating through the filter and attached to the lower surface of the filter was counted (Doerr et al., 1996, J Biol Chem 271:2443; Verdoorn et al., 1986, Arch Ophtalmol 104:1216). Triplicate samples were assayed in all experiments.

ocular melanocytes = details: Hu, 2000; cited from earlier work
epidermal melanocytes [4] = details: Halaban et al., 1988; cholera toxin in the media; cited from earlier work
[5] = cAMP-elevating agents-deleted medium, epinephrine 1-3,000 ng/ml, α-MSH 1-1,000 ng/ml
[6] = growth factor-deleted medium, 1-1,000 ng/ml

| Molecule | Melanin content/well versus control (epidermal melanocytes [1]; [5]) | Cell growth (cell number) versus control (epidermal melanocytes [2]; [5]) | Migration of epidermal melanocytes (epidermal melanocytes [3]) | Melanin content/well versus control (epidermal melanocytes [1]; [6]) | Growth of cultured ocular melanocytes (ocular melanocytes) | Cell growth (cell number) versus control (epidermal melanocytes [2]; [6]) | Migration cell number versus control (epidermal melanocytes [3]; 1-1,000 ng/ml, 6 hours) | Growth of cultured epidermal melanocytes (epidermal melanocytes [4]) |
| --- | --- | --- | --- | --- | --- | --- | --- | --- |
| CNC[C@H](O)c1ccc(O)c(O)c1 [epinephrine, (L)-Epinephrine bitartrate] | significantly greater than that of the controls | dose dependent stimulation of cell growth | stimulated the growth, melanogenesis and migration | – | – | – | – | – |
| HGF: hepatocyte growth factor, pleiotrophic growth factor (PeproTech) | – | – | – | significantly greater than that of the controls | stimulates growth of cultured ocular melanocytes | dose dependent stimulation of cell growth | dose dependent stimulation of migration | – |
| bFGF: basic fibroblast growth factor (PeproTech) | – | – | – | did not show any significant influence on melanin content | – | dose dependent stimulation of cell growth | – | – |
| α-MSH: tridecapeptide with a sequence identical to the first 13 amino acids of adrenocorticotropin (ACTH) (SYSMEHFRWGKPV; ends and bridges not checked; UniProt P01189 138-150, looked up) | significantly greater than that of the controls | dose dependent stimulation of cell growth | stimulated the growth, melanogenesis and migration | – | – | – | – | failed to stimulate growth |

From US7132279B2, “Epidermal melanocyte culture formulations” (New York Eye & Ear Infirmary, priority 2003, dated 2006)
